Where two headings read alike, the source gives them in different places.
Experiments:
[1] = target: T1, human recombinant AT2 receptor (Homo sapiens, UniProt P50052); assay: Binding to AT2 receptor, radiometric scintillation assay (Eurofins); conditions: ligand 125I CGP 42112A, tested at 1, 10, 100 and 1000 nM
T1 construct: purchased Eurofins ITEM26
T1 sequence (P50052 1-363): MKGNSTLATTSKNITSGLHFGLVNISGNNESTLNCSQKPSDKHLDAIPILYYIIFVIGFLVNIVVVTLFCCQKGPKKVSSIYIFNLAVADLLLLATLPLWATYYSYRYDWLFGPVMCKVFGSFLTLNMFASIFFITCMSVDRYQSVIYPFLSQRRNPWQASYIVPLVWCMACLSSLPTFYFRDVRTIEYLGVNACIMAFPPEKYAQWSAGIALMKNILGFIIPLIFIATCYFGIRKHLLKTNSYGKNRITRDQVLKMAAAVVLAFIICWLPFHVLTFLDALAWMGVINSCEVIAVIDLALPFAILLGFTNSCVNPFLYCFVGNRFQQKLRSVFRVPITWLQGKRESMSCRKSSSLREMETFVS
Procedure: Compounds were evaluated for binding to the human recombinant AT2 and AT1 receptor according to Eurofins protocol ITEM26 and ITEM24 using a radiometric scintillation assay.

[2] = Metabolic stability in pooled human liver microsomes; format: in vitro ADME; conditions: pooled human liver microsomes 0.5 mg/ml, 1 μM test compound, 37° C.
Procedure: Pooled human liver microsomes in PBS at a concentration of 0.5 mg/ml was incubated with or without 1 mM NADPH for 70 min at 37° C. Test compound was added after 10 minutes to a final concentration of 1 μM. Samples were withdrawn at 0, 5, 15 and 60 minutes and added to test tubes containing acetonitrile, to stop the reaction, and with terfenadine, used as internal standard. After centrifugation at 10 000×g for 5 minutes the supernatant was diluted 1:1 with 1% formic acid. Samples were separated on a reverse phase column and detected by triple quadrupole MSMS (Agilant model 6540). The concentration of the parent compound at the different time points was measured with an external standard curve using terfenadine as internal standard and the initial metabolic rate in the presence or absence of NADPH calculated.

[3] = with 1 mM NADPH, read-out: T1/2, + NaDPH
[4] = without NADPH, read-out: T1/2, no NaDPH

| Structure (SMILES) | IC50 [1] [nM] | half-life at 1 μM [2, 3] [h] | half-life at 1 μM [2, 4] [h] |
| --- | --- | --- | --- |
| Cc1nccn1Cc1ccc(-c2cc(CC(C)C)sc2S(=O)(=O)NC(=O)NCCC(F)F)cc1 [Example 29, 1-(3,3-Difluoropropyl)-3-(5-isobutyl-3-{p-[(2-methyl-1H-imidazol-1-yl)methyl]phenyl}-2-thienylsulfonyl)urea] | 33 |  |  |
| Cc1nccn1Cc1ccc(-c2cc(CC(C)C)sc2S(=O)(=O)NC(=O)NCCC(F)(F)F)c(F)c1 [Example 26, 3-(3-{2-Fluoro-4-[(2-methyl-1H-imidazol-1-yl)methyl]phenyl}-5-isobutyl-2-thienylsulfonyl)-1-(3,3,3-trifluoropropyl)urea] | 25 | > 1 | > 1 |
| Cc1nccn1Cc1ccc(-c2cc(CC(C)C)sc2S(=O)(=O)NC(=O)NCCCF)cc1 [Example 28, 1-(3-Fluoropropyl)-3-(5-isobutyl-3-{p-[(2-methyl-1H-imidazol-1-yl)methyl]phenyl}-2-thienylsulfonyl)urea] | 32 | > 1 | > 1 |
| Cc1nccn1Cc1ccc(-c2cc(CC(C)C)sc2S(=O)(=O)NC(=O)NCC(F)(F)F)c(F)c1 [Example 27, 3-(3-{2-Fluoro-4-[(2-methyl-1H-imidazol-1-yl)methyl]phenyl}-5-isobutyl-2-thienylsulfonyl)-1-(2,2,2-trifluoroethyl)urea] | 61 |  |  |
